The target in experiment [1] is T1, VIM-1 (Pseudomonas aeruginosa, UniProt A0A0F7KYQ8).
T1 construct: made in house
Nature of the experiment: fluorogenic cephalosporin FC5 MBL inhibition assay, VIM-1. The experiment is classed as biochemical. The settings on record: FC5 5 μM, enzyme 100 pM, quadruplicate; for IC50: read-out: pIC50 VIM-1 (converted). The procedure: (§1) The NSPCs were screened against four of the currently most clinically relevant B1 MBLs, i.e. VIM-1, VIM-2, NDM-1, and IMP-1 (Table 1), using an assay employing the “fluorogenic” cephalosporin FC5.[40]
(§2) The inhibitory activity of NSPCs 6, 8-14 against representative B1 subfamily MBLs [obtained according to previously reported production and purification procedures: VIM-1,5 VIM-2, NDM-1 and IMP-16] was determined using a fluorogenic assay monitoring the enzymatic breakdown of the cephalosporin probe FC5.6 The FC5/meropenem assays were conducted at room temperature in clear-bottomed Greiner 384 black well microplates (FC5) or Greiner 96 well UV star microplates (meropenem), using a ClarioStar or PHERAstar FS microplate reader (BMG LabTech). Representative β-lactamases were tested at the following concentrations:
(§3) VIM-1, 100 pM; NDM-1, 20 pM; IMP-1, 20 pM; and VIM-2, 500 pM. The concentration of FC5 employed was 5 μM for all enzymes. IMP-1, VIM-1, VIM-2 and NDM-1 inhibition assays were screened in “MBL buffer” (50 mM HEPES, pH 7.2, 1 μM ZnSO4, 1 μg mL−1 BSA, 0.01% v/v Triton X-100). The initial rates of reaction (measured after 10 min pre-incubation of the NSPC with the enzyme) were assessed by monitoring the fluorescence intensity at λex = 380 nm and λem = 460 nm. Following the determination of initial rates of reaction, the data were fitted using a four-parameter function: log (inhibitor) vs. response, variable slope in GraphPad Prism 6 to obtain IC50 values.6, 7

In experiment [2] the target is T2, NDM-1 (Klebsiella pneumoniae, UniProt C7C422).
T2 construct: made in house
Nature of the experiment: fluorogenic cephalosporin FC5 MBL inhibition assay, NDM-1. Conditions: for IC50: FC5 5 μM, enzyme 20 pM, quadruplicate, read-out: pIC50 NDM-1 (converted); for activity (IC50) for inhibition of NDM-1, in words: FC5 assay. The format is biochemical. As to the method: as §1, §2, §3

For experiment [3], the target named is T3, VIM-2 (Escherichia coli, UniProt Q5U7L7).
T3 construct: made in house
As to the kind of experiment: fluorogenic cephalosporin FC5 MBL inhibition assay, VIM-2. The experiment is classed as biochemical. Conditions: FC5 5 μM, enzyme 500 pM, quadruplicate; read-out: pIC50 VIM-2 (converted). As to the method: as §1, §2, §3

Experiment [4] addresses T4, IMP-1 (Serratia marcescens, UniProt P52699).
T4 construct: made in house
Nature of the experiment: fluorogenic cephalosporin FC5 MBL inhibition assay, IMP-1. Conditions: FC5 5 μM, enzyme 20 pM, quadruplicate; read-out: pIC50 IMP-1 (converted). The experiment is classed as biochemical. As to the method: as §1, §2, §3

In experiment [5] the target is T2, NDM-1. The settings on record: determined using 100 μM nitrocefin; cited from earlier work.
For experiment [6], the target named is T3, VIM-2. The settings on record: determined using 100 μM nitrocefin; cited from earlier work.
Experiment [7] deals with T4, IMP-1. The settings on record: determined using 100 μM nitrocefin; cited from earlier work.
Experiment [8] deals with T2, NDM-1. On the set-up: method as in PMID 32184250. The settings on record: determined by measuring hydrolysis of imipenem; cited from earlier work.
Experiment [9] addresses T3, VIM-2. On the set-up: method as in PMID 32184250. The settings on record: determined by measuring hydrolysis of imipenem; cited from earlier work.
For experiment [10], the target named is T4, IMP-1. The arrangement: method as in PMID 32184250. The settings on record: determined by measuring hydrolysis of imipenem; cited from earlier work.
Experiment [11] addresses T1, VIM-1. The settings on record: cited from earlier work.
Experiment [12] addresses T3, VIM-2. Conditions: cited from earlier work.
Experiment [13] concerns the target T4, IMP-1. The settings on record: cited from earlier work.
In the next experiment the test system is E. coli IR57 blaNDM-1. On the set-up: method as in PMID 31454231. The settings on record: strain IR57, VNRX at 10 μg mL^–1 (printed in the [I] 8 row); cited from earlier work.
The test system of experiment [14] is K. pneumoniae B68-1 blaNDM-1. The arrangement: method as in PMID 31454231. Conditions: strain B68-1, VNRX at 10 μg mL^–1 (printed in the [I] 8 row); cited from earlier work.
Another experiment concerns E. coli S117 blaNDM-1. On the set-up: method as in PMID 31454231. Conditions: strain S117, VNRX at 10 μg mL^–1 (printed in the [I] 8 row); cited from earlier work.
The subject of experiment [15] is K. pneumoniae IR43 blaNDM-1. The arrangement: method as in PMID 31454231. Conditions: strain IR43, VNRX at 10 μg mL^–1 (printed in the [I] 8 row); cited from earlier work.

Each structure is given as a SMILES string. Where two headings read alike, the source gives them in different places.

T2 sequence (C7C422 29-270, looked up, species assumed): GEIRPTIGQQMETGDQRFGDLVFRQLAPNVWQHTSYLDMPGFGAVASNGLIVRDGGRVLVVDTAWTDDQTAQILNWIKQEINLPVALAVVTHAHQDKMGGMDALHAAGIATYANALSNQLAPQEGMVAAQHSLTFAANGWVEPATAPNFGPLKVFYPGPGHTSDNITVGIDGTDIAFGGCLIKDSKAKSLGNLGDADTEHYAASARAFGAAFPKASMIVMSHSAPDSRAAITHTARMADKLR
T4 sequence (P52699 19-246, looked up, species assumed): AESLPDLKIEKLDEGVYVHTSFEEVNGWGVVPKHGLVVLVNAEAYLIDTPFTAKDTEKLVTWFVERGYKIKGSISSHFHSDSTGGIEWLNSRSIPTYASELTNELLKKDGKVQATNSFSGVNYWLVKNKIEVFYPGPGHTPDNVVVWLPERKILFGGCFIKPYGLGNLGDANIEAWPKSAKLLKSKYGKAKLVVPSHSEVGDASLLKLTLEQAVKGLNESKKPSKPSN

Turning to `NS(=O)(=O)n1ccc(-c2ccc(F)cc2)c1C(=O)O` [6a, 3-(4-Fluorophenyl)-1-sulfamoyl-1H-pyrrole-2-carboxylic acid], the IC50 on VIM-1 [1] is 0.126 µM; on NDM-1 [2], 0.00794 µM; on VIM-2 [3] it was 0.02 µM; on IMP-1 [4], 0.000631 µM. On NDM-1 [2], the “activity (IC50) for inhibition of NDM-1, in words” value (“activity (IC50) for inhibition” for short) is reported as “nanomolar potency”.

In the case of `NS(=O)(=O)n1ccc(-c2ccc(F)cc2)c1C(=O)[O-].[Na+]` [6b], the “pIC50 VIM-1” value at VIM-1 [1] came out at 6.9. In addition, the IC50 was 0.00631 µM at NDM-1 [2], 0.0316 µM at VIM-2 [3] and 0.00126 µM at IMP-1 [4]. Besides, the “activity (IC50) for inhibition” value at NDM-1 [2] was “nanomolar potency”.

As to `NS(=O)(=O)n1ccc(-c2ccc(C3CCNCC3)cc2)c1C(=O)O` [AMRC276], the “pIC50 NDM-1” value at NDM-1 [5] was 6.8[22]. The “pIC50 VIM-2” value at VIM-2 [6] is 4.2[22]. In addition, the “pIC50 IMP-1” value on IMP-1 [7] was 7.4[22].

As to `NS(=O)(=O)n1ccc(-c2ccc(=O)[nH]c2)c1C(=O)O` [AMRC364], at NDM-1 [5], the “pIC50 NDM-1” value was 5.6[22]. Further, on VIM-2 [6], the “pIC50 VIM-2” value is 4.4[22]. For the same compound, on IMP-1 [7], the “pIC50 IMP-1” value was 5.7[22].

Consider `CS(=O)(=O)c1ccc(-c2ccn(S(N)(=O)=O)c2C(=O)O)cc1` [AMRC439], for which the “pIC50 NDM-1” value on NDM-1 [5] is 6.4[22]. Moreover, the “pIC50 VIM-2” value on VIM-2 [6] was 4.3[22]. Further, at IMP-1 [7], the “pIC50 IMP-1” value is 6.3[22].

In the case of `CCc1c(C(=O)O)c(S(N)(=O)=O)c(CC)n1C` [SPC], on NDM-1 [8], the “pIC50 NDM-1” value is 6.0[21]. Also, the “pIC50 VIM-2” value at VIM-2 [9] is 7.7[21]. Besides, the “pIC50 IMP-1” value on IMP-1 [10] is 6.6[21].

Consider `NC(=O)c1ccc(-c2ccn(S(N)(=O)=O)c2C(=O)O)cc1` [compound 8], for which the IC50 at VIM-1 [1] was 0.0794 µM; on NDM-1 [2], 0.0126 µM; on VIM-2 [3], 0.158 µM; on IMP-1 [4], 0.00251 µM.

Take `Nc1ccc(-c2ccn(S(N)(=O)=O)c2C(=O)[O-])cn1.[Na+]` [compound 9]: the IC50 at VIM-1 [1] was 0.316 µM; on NDM-1 [2] it was 0.0126 µM; at VIM-2 [3], 0.2 µM; at IMP-1 [4] it was 0.001 µM. Also, the “pIC50 NDM-1” value at NDM-1 [5] was 6.1[22]. The “pIC50 VIM-2” value on VIM-2 [6] is 4.5[22]. Also, the “pIC50 IMP-1” value at IMP-1 [7] is 6.4[22].

Consider `NS(=O)(=O)n1ccc(-c2cn[nH]c2)c1C(=O)O` [compound 10], for which the IC50 at VIM-1 [1] is 0.0794 µM; on NDM-1 [2] it was 0.00794 µM; on VIM-2 [3] it was 0.0158 µM; on IMP-1 [4] it was 0.00126 µM. Further, the “activity (IC50) for inhibition” value at NDM-1 [2] is reported as “nanomolar potency”.

In the case of `Nc1ncc(-c2ccn(S(N)(=O)=O)c2C(=O)O)cn1` [compound 11], the IC50 is 0.0398 µM at VIM-1 [1], 0.0126 µM at NDM-1 [2], 0.0501 µM at VIM-2 [3] and 0.00631 µM at IMP-1 [4].

Turning to `N=C1NCC(c2ccn(S(N)(=O)=O)c2C(=O)O)CN1` (centres unmarked) [compound 12], the IC50 at VIM-1 [1] is 0.00316 µM; on NDM-1 [2] it was 0.316 µM; on VIM-2 [3], 0.0126 µM; on IMP-1 [4], 0.0501 µM.

Regarding `NS(=O)(=O)n1ccc(-c2ccc(N3CCOCC3)cc2)c1C(=O)O` [compound 13], the IC50 at VIM-1 [1] is 0.251 µM; on NDM-1 [2] it was 0.00158 µM; at VIM-2 [3], 0.158 µM; on IMP-1 [4], < 0.000631 µM. For the same compound, on NDM-1 [2], the “activity (IC50) for inhibition” value is reported as “nanomolar potency”.

For the compound `Nc1nc2ccc(-c3ccn(S(N)(=O)=O)c3C(=O)O)cn2n1` [compound 14, 3-(2-Amino-[1,2,4]triazolo[1,5-a]pyridin-6-yl)-1-sulfamoyl-1H-pyrrole-2-carboxylic acid], the IC50 on VIM-1 [1] was 0.0398 µM; on NDM-1 [2], 0.0126 µM; at VIM-2 [3] it was 0.00631 µM; on IMP-1 [4], 0.00501 µM.

`NCCN[C@H]1CC[C@H](CC(=O)N[C@H]2Cc3cccc(C(=O)O)c3OB2O)CC1` [taniborbactam]: the “pIC50 VIM-1” value at VIM-1 [11] was 8.1[41]. Further, the “pIC50 VIM-2” value on VIM-2 [12] was 8.3[41]. Further, the “pIC50 IMP-1” value at IMP-1 [13] was 5.6[41]. The “MIC of MEM in combination with VNRX” value in the experiment with E. coli IR57 blaNDM-1 is 0.5 μg mL^–1; in experiment [14], 0.5 μg mL^–1; in the experiment with E. coli S117 blaNDM-1, 1 μg mL^–1; in experiment [15], 0.25 μg mL^–1.

The values are drawn from article PMC8205225, “Structural Basis of Metallo-β-lactamase Inhibition by N-Sulfamoylpyrrole-2-carboxylates” (ACS Infectious Diseases, 2021).
